Source: patent US9464057B2, “Anti-malarial agents” (MMV MEDICINES FOR MALARIA VENTURE, priority 2013, dated 2016)
Where two headings read alike, the source gives them in different places.

Columns and labels:
[1] = test system: field isolates of Plasmodium vivax; assay: ex vivo parasite growth inhibition assay, field isolates of Plasmodium vivax; assay type: cell-based; conditions: P. vivax field isolates (15 isolates), read-out: Median EC50
Description: (§1) Compound 2 has also been tested against field isolates of Plasmodium falciparum (15 isolates) and Plasmodium vivax (15 isolates) using an ex vivo parasite growth inhibition assay as described in Marfurt et al., 2011, Antimicrob Agents Chemother., 55(3): 961.

[2] = test system: field isolates of Plasmodium falciparum; assay: ex vivo parasite growth inhibition assay, field isolates of Plasmodium falciparum; assay type: cell-based; conditions: P. falciparum field isolates (15 isolates), read-out: Median EC50
Description: as §1

[3] = test system: multidrug-resistant P. falciparum line Dd2; assay: P. falciparum growth inhibition by 3H-hypoxanthine incorporation; assay type: cell-based; conditions: Plasmodium falciparum
Experimental: The ability of pyrazole derivatives according to the invention to kill P. falciparum parasites and/or to inhibit its proliferation is assayed through their ability to inhibit Plasmodium falciparum growth determined by 3H-hypoxanthine incorporation. The assay is derived from the method originally described by Desjardin et al., 1979, Antimicrob. Agents Chemother, 16: 710-718 which was modified. The method assesses parasite growth as reflected by incorporation of radiolabeled hypoxanthine by parasites. P. falciparum in culture are exposed to graded dilutions of test compounds for 48 h and incorporation of 3H-hypoxanthine over the last 24 h into parasite nucleic acids is determined by liquid scintillation spectroscopy. The specific method is described below: The test compounds are diluted by three-fold serial dilutions, in triplicate wells, using low hypoxanthine medium (LHM) RPMI (Roswell Park Memorial Institute medium), 1640, 0.5% Albumax, 0.2% sodium bicarbonate, 0.025M HEPES, 2 mM glutamine, 50 μg/ml Gentamicin, 2.5 μg/ml hypoxanthine, pH 7.35) in sterile flat-bottomed 96 well plates. Final volume in each well is 100 μl. Triplicate control wells contain 100 μl LHM without any inhibitor.
The mixed stage parasitized red blood cells (RBCs), containing greater than 50% ring stage parasites, are diluted to 1% parasitemia using uninfected RBCs, washed two times with LHM, and diluted to 3% hematocrit with LHM. 100 μl of diluted parasites is added to each well. Thus, the final hematocrit is 1.5% with 0.5% parasitemia at the beginning of the assay.
The plates comprising the test wells are placed in a humidified chamber, gassed with 5% CO2, 5% O2, 90% N2, and placed in a 36.5° C. incubator for 24 h. After 24 h incubation, 0.25 μCi of 3H-hypoxanthine in 20 μL LHM is added to each well. Plates are returned to the chamber, gassed, and incubated for an additional 24 h. At the end of the second 24 h incubation, plates are transferred to a −80° C. freezer and stored for a minimum of 2 h. then Plates are thawed and the lysed material is transferred to EasyTabC glass fiber filters (Perkin Elmer; PE) using a Packard Filtermate 196 Cell Harvester. Filters are dried, placed in an Omnifilter Cassette (Perkin Elmer), and 30 μl of Microscint-O-high efficiency liquid scintillation cocktail (PE) is added to each 3 well. The plates are sealed with a Top-Seal for 96 well microplates (Perkin Elmer) and counted using a Packard TopCount-1 microplate liquid scintillation counter. Results are tabulated and graphed using Prism GraphPad software to determine effective EC50 values (concentration at which 50% parasite growth inhibition occurs).

[4] = test system: Plasmodium falciparum Pf3D70087/N9; assay: in vivo therapeutic efficacy, 4-day-test in humanized mice; parameters: species or system NOD-scidIL2Rγnull mice engrafted with human erythrocytes; conditions: single oral dose per day for four consecutive days; for ED50: 50% inhibition of blood parasitemia by flow cytometry; for ED90: 90% inhibition of blood parasitemia by flow cytometry
Experimental: The ability of pyrazole derivatives according to the invention to show antimalarial efficacy in vivo can be tested by using the protocols described by Jimenez-Diaz et al., 2009, Antimicrob. Agents Chemother., 53:4533-4536. The therapeutic efficacy of compounds of invention against Plasmodium falciparum Pf3D70087/N9 growing in peripheral blood of NOD-scidIL2Rγnull mice engrafted with human erythrocytes. Efficacy is assessed by administering varying amounts of single oral doses of compounds per day for four consecutive days (4-day-test) and measuring their effect on blood parasitemia by flow cytometry. This assay provides effective doses of compounds capable of inhibiting 50% (ED50) and 90% (ED90) levels of parasitemia.

[5] = DD2, read-out: EC50 (concentration at which 50% parasite growth inhibition occurs)
[6] = P. falciparum Dd2, 48 h exposure, 3H-hypoxanthine incorporation over last 24 h, read-out: EC50 (concentration at which 50% parasite growth inhibition occurs)

Compound | EC50 [1] [nM] | EC50 [2] [nM] | EC50 [3, 5] [nM] | ED50 [4] [mg/kg per day] | ED90 [4] [mg/kg per day] | EC50 [3, 6] [nM]
Cc1nn(C)c(NC(=O)Cn2c(C(C)C)nc3ccccc32)c1-c1ccc(Cl)cc1F [Compound 2, N-(4-(4-chloro-2-fluorophenyl)-1,3-dimethyl-M-pyrazol-5-yl)-2-(2-isopropyl-M-benzo[d]imidazol-1-yl)acetamide] | 10 | 15 | 5.4 | 1.7 | 2.5 | –
COc1ccc(-c2c(C(F)(F)F)nn(C)c2NC(=O)Nc2ccc(F)cc2F)cc1 [Reference 1, reference compound] | – | – | – | – | – | 150
Cn1nc(C(F)(F)F)c(-c2ccc(F)cc2)c1NC(=O)C[C@H](N)Cc1ccc(F)cc1 [Compound 3, (R)-3-amino-N-(3-(trifluoromethyl)-4-(4-fluorophenyl)-1-methyl-1H-pyrazol-5-yl)-4-(4-fluorophenyl)butanamide] | – | – | 0.2 | 1.8 | 3.0 | –
CCN(CC)CCCC(C)Nc1ccnc2cc(Cl)ccc12 (stereo not shown) [Chloroquine, reference compound] | – | – | – | 4.3 | – | –
Cc1nn(C)c(NC(=O)C[C@H](N)Cc2ccc(F)cc2)c1-c1ccc(F)cc1 [Compound 4, (R)-3-amino-4-(4-fluorophenyl)-N-(4-(4-fluorophenyl)-1,3-dimethyl-1H-pyrazol-5-yl) butanamide] | – | – | 8 | 3.0 | 4.1 | –
CC(C)c1nc2ccccc2n1CC(=O)Nc1c(-c2ccc(Cl)cc2F)c(C(F)(F)F)nn1C [Compound 1, N-(4-(4-chloro-2-fluorophenyl)-3-(trifluoromethyl)-1-methyl-1H-pyrazol-5-yl)-2-(2-isopropyl-1H-benzo[d]imidazol-1-yl)acetamide] | – | – | 0.7 | 0.53 | 0.94 | –
Cn1nc(C(F)(F)F)c(-c2ccc(Br)cc2)c1NC(=O)Cc1ccccc1F [Reference 2, reference compound] | – | – | – | – | – | 50
O=C1C(O)=C([C@H]2CC[C@H](c3ccc(Cl)cc3)CC2)C(=O)c2ccccc21 [Atovaquone, reference compound] | – | – | – | – | – | 1
C[C@@H]1CC[C@H]2[C@@H](C)C(=O)O[C@@H]3O[C@@]4(C)CC[C@@H]1[C@]32OO4 [Artemisinin, reference compound] | – | – | – | – | – | 12
